Results: PubChem BioAssay AID179 (DTP/NCI, 2004)
pEC50, pIC50: −log10 of the molar value. Active and inactive are the calls of the source.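 How the source made its calls: active means compounds giving half or more protection of infected cells from virus-caused growth loss, again on retest; inactive means the rest.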

Test system: CEM cells HIV-1 protection, formazan growth assay
Experiment: NCI AIDS Antiviral Assay
Conditions: for pIC50: measured here: growth of uninfected CEM cells
Outline: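 CEM (human) cells, HIV-1 infected vs uninfected, 5-point dosing, formazan growth read-out. Retest threshold 50% protection.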

SMILES	pEC50	pIC50	outcome
CC(C)CCC[C@@H](C)C1CCC2[C@@H]3CCC4C[C@@H](CCCC=C(c5cc(Cl)c(O)c(C(=O)O)c5)c5cc(Cl)c(O)c(C(=O)O)c5)CC[C@]4(C)C3CC[C@@]21C (stereo partly specified)	4.20	3.78	
COC(=O)[n+]1cc2c3cccc[n+]3c(N(C)C)n2c2ccccc21	< 3.70	4.78	
CC(=S)N=Cc1c(C)[nH]n(-c2ccccc2)c1=O	< 4.00	4.38	
S=c1nc2[nH]c3ccccc3c2n[nH]1	< 3.70	< 3.70	
CCOC(=O)C1C(c2ccc3c(c2)OCO3)c2c([nH][nH]c2=O)CC1(C)O (stereo unspecified)	< 3.70	< 3.70	
O=c1c2ccccc2[se]n1-c1ccccn1	5.11	4.79	
CCN(CC)c1ccc2cc3ccc(=[N+](CC)CC)cc-3oc2c1	< 3.30	6.80	
Cn1c2ccccc2c(=O)c2c(O)cc3c(c21)C1OCC(C)(O)C1O3 (stereo unspecified)	< 3.70	4.47	
CCN(CC)CCCCCCNc1cc(C)cc2cccnc12	< 3.70	4.68	
C=CC(CCC(C)OC(CCC)OCC)[Si](C)(C)C (stereo unspecified)	< 4.04	< 4.04	
CC1=C(C(=S)Nc2ccc(Cl)c(C(=O)OC(C)C)c2)SCCO1	7.62	4.19	
CN1C(=O)CCC1(O)C1C=CC=CC1 (stereo unspecified)	< 2.89	< 2.89	
CN(C)CC/C(=N\Nc1ccc(Cl)cc1)c1ccccc1			inactive
O=[N+]1[C@H](c2ccccc2)[C@H](c2ccccc2)N1[O-]	< 3.70	4.94	
CC(SC(C)C(=O)N/N=C/c1c[nH]c2ccccc12)C(=O)N/N=C\c1c[nH]c2ccccc12 (stereo unspecified)	< 3.70	3.92	
[N-]=[N+]=Nc1cc(=O)n(-c2ccccc2)c(=O)n1-c1ccccc1	< 3.70	< 3.70	
COC1/C=C/OC2(C)Oc3c(C)c(O)c4c(c3C2=O)C(=O)C(CO)=C(NC(=O)/C(C)=C\C=C\C(C)C(O)C(C)C(O)C(C)C(OC(C)=O)C1C)C4=O (stereo unspecified)	< 3.70	4.04	
CCN(c1ccccc1)c1nc(N)nc(NS(=O)(=O)c2cc(C)c(Cl)cc2S)n1	4.15	< 3.70	
C1=CC2=CC=CC3c4nc5ccc6ccccc6c5nc4C(=C1)C23 (stereo unspecified)	< 3.70	< 3.70	
CCCCCCNCCCNc1c2ccccc2nc2cccc([N+](=O)[O-])c12	< 5.70	6.86	
CC[C@]1(Cc2ccc(OC)c(OC)c2)C2CC(C(=O)OC)ON2O[C@H](OCc2ccccc2)[C@@H]1OC(C)=O (stereo partly specified)	< 3.70	3.99	

SMILES	pEC50	pIC50	outcome
O=C1NC(c2cccc(Cl)c2)N2C(=O)NC(c3cccc(Cl)c3)N12 (stereo unspecified)			inactive
Cc1ccnc2sc3ccccc3c(=O)c12	< 3.70	4.43	
CC1CC(=O)Nc2ccccc2N1C(=O)C1CC1 (stereo unspecified)	< 3.70	< 3.70	
NC(=O)C1CCCN1C(=O)N(CCCl)N=O (stereo unspecified)	< 3.70	< 3.70	
C=C(CC[C@@H](O)C(Cl)CO)[Si](C)(C)C (stereo partly specified)	< 3.96	< 3.96	
CCc1cccc(CC)c1NC(=O)C(=O)Cc1nc2ccccc2o1	< 3.27	< 3.27	
COC(=O)c1ccccc1C1CN=NC12Cc1c(C)ccc(C)c1C2=O (stereo unspecified)	< 3.70	3.81	
c1ccc2[nH]c(SSSSc3nc4ccccc4[nH]3)nc2c1	< 3.70	< 3.70	
COC1O[C@H]2[C@H]3[C@@H]1[C@@H](OS(=O)(=O)c1ccc(C)cc1)C(=O)N3C[C@H]2O (stereo partly specified)	4.74	3.85	
CC(C)n1c(=O)n(-c2ccccc2)n(C(C)(C)C)c1=O	< 3.70	< 4.00	
CN(C)C(=S)N1C(=S)N(c2ccccc2)C(=Nc2ccccc2)C1=Nc1ccccc1	< 3.70	3.77	
Nc1n[n+]([O-])c2cnccc2[n+]1[O-]	< 3.70	4.15	
O=S(=O)(c1ccccc1)N1CCCC(c2ccccc2)CC1 (stereo unspecified)			inactive
C=CCNC(=O)N(CCC)CCCCC(NC(C)=O)C(=O)NCc1ccccc1 (stereo unspecified)	< 4.05	< 4.05	
Cc1c(-c2nc(N)c(C#N)c(N)c2C#N)c(=O)oc2ccccc12	< 3.70	3.94	
O=C1OCCOCCOC(=O)c2cccc(n2)C(=O)OCCOCCOC(=O)c2cccc1n2	< 3.28	< 3.28	
CC12CCCCC1CC(=O)/C(=C\O)C2 (stereo unspecified)	< 3.70	4.11	
C[C@]12CC[C@H](O)CC1=CC[C@@H]1C2CC[C@]2(C)Nc3[nH]ncc3CC12 (stereo partly specified)			inactive
N#Cc1c(N=Cc2ccccc2)c(C(=O)Nc2ccccc2)n2c1CCC2	< 4.30	< 4.30	
COc1ccc2c(c1)c1c(n2CCN2CCOCC2)-c2ccccc2CC1			inactive
C/C=C/[C@@H]1[C@H]2C(=O)[C@]3(Cl)[C@@H](/C=C/C)[C@@H]3C(=O)[C@@]12Cl			inactive

SMILES	pEC50	pIC50	outcome
COc1ccccc1N1C(=O)C2c3[nH]c4ccccc4c3C3CCC(C(C)(C)C)CC3C2C1=O (stereo unspecified)	< 5.92	< 5.92	
CC(C)N(C(C)C)P(=O)(OP(=O)(c1ccc([N+](=O)[O-])cc1)N(C(C)C)C(C)C)c1ccc([N+](=O)[O-])cc1 (stereo unspecified)	< 3.70	3.82	
Cn1cccnc1=O	< 3.70	< 3.70	
NCCCN1c2ccccc2Sc2ccc(Cl)cc21	< 3.70	4.97	
O=c1oc2c(-c3c(O)c(=O)oc4ccccc34)cc(O)cc2s1	< 3.68	4.01	
CCOc1ccccc1NC(=O)C(=O)CC(=O)C1=C(C)Nc2ccccc2S1	< 3.93	< 3.93	
COc1ccc2[nH]c(=O)cc(C)c2c1[N+](=O)[O-]			inactive
O=C1C2C(C(=O)N1c1ccccc1)C1(c3ccccc3)CCC2(C(=O)c2ccccc2)O1 (stereo unspecified)	< 3.70	4.30	
COC(=O)OCC1C=CC(n2cnc3c(Cl)ncnc32)CC1 (stereo unspecified)	< 3.70	4.94	
CN1C(=O)C(C(C)(C)C2SC(=S)N(C)C2=O)SC1=S (stereo unspecified)	< 3.70	< 3.70	
O=C1CC2C3C1N(c1ccc(Cl)cc1)C1(Nc4ccc(Cl)cc4)C(=O)CC(C31)N2c1ccc(Cl)cc1 (stereo unspecified)	< 3.70	4.47	
C=C(CC1CCCS(=O)(=O)C1)S(=O)(=O)c1ccc(C)cc1 (stereo unspecified)	< 3.70	< 3.70	
CCOC(=O)C1(C#N)C(c2ccccc2)CC(O)(c2ccc(OC)cc2)C(C(=O)c2ccc(OC)cc2)C1c1ccccc1 (stereo unspecified)	< 4.91	< 4.91	
O=C(O)CCC(=O)Nc1ccccc1	< 3.70	< 3.70	
CCOP(=O)(CCn1cnc2c(N)ncnc21)OCC	3.75	3.36	
Cc1ccnc(NS(=O)(=O)c2ccc(NC(=O)c3ccc4nc5ccccc5c(Nc5ccc(S(=O)(=O)Nc6nccc(C)n6)cc5)c4c3)cc2)n1	< 3.70	4.08	
CC[C@@H](C)[C@H](NC(=O)[C@H](CCCCN)NC(=O)[C@H](CCCCN)NC(=O)[C@H](CC(C)C)NC(=O)[C@@H]1CCCN1C(=O)[C@@H]1CCCN1C(=O)[C@@H](NC(=O)[C@H](CC(C)C)NC(=O)[C@H](CCCCN)NC(=O)[C@H](CCCN=C(N)N)NC(=O)[C@@H](N)C(C)C)[C@@H](C)O)C(=O)O			inactive
O=C(O)C1SCCCS1	< 2.82	< 2.82	
CC(C)(CN1CCCCC1)C(=O)/C=C/c1ccc(Br)cc1	< 3.89	5.77	
COc1ccc2c(c1)CCC1OC(c3cccnc3)OC21 (stereo unspecified)	< 3.70	4.52	
